# Measured values published in patent US20230159954A1, “Apparatus for Improved Transfection and / or intracellular delivery efficiency of an Agent into a Eukaryotic Cell and / or Protein Expression and Method of Use Thereof” (St Andrews Pharmaceutical Technology Ltd., priority 2020, published 2023).
# Entries after “also recorded” stand apart in the source; their conditions may differ.
# Test system: Human Colon Tumour (HCT) 116 cells
# Assay: Western Blot of p53 isoforms after doxorubicin treatment with or without pulsed technology
# Format: cell-based
# Details: for uptake / intra-cellular delivery of doxorubicin from the media: concluded from upregulation of p53 isoforms
# Procedure: Human Colon Tumour (HCT) 116 cells (adherent cells) (ATCC, USA-ATCC® CCL-247™) were seeded at a density of 3×10^5 cells per well in two CELLSTAR® 6-well plates (9.6 cm^2) in a final volume of 5 mL Dulbecco's Modified Eagle Medium (DMEM) (Thermo Fisher, USA)+10% Fetal Bovine Serum (FBS) (Hyclone, USA) 24 hours before treatment.
# The naked agent used was Doxorubicin (0.25 μM) (Sigma Aldrich) in absolute ethanol and was given to the cells for a 1 hour treatment period and incubated at 37° C., at 5% CO^2.
# After treatment the media was removed and fresh media was added to the cells. One of the plates was incubated directly at 37° C., at 5% CO^2 and the second plate was placed in a different incubator and pulsed using the pulsed technology of the present invention at 37° C., at 5% CO^2.
# Protein extracts were collected at 3 hours, 6 hours, 9 hours, 16 hours or 24 hours of treatment for analysis by SDS-page.
# 1. For protein extraction the cells were washed twice with ice-cold PBS and then lysed in NP-40 extraction buffer (50 mM Tris pH 7.5; 10% glycerol; 0.1% “NP-40 Alternative” (Merck Millpore, USA); 100 mM NaCl; 0.2 mM EDTA) supplemented with 1× Complete™ Protease Inhibitor Cocktail (Roche, Switzerland). Extracts were sonicated (20 seconds, 20% amplitude) and protein concentration was determined using BCA™ Protein Assay Kit (ThermoFisher Scientific, USA) according to the manufacturer's recommendations.
# 1. Protein extracts (15/20 μg depending on the experiment) were supplemented with 0.1M dithiothreitol (DTT) and 1×LDS buffer (Invitrogen, USA) and were heated at 95° C. for 10 min before loading on NuPAGE 10% Bis-Tris polyacrylamide gels (Invitrogen, USA).
# 2. Protein samples were separated by electrophoresis (100V) using 1×MOPS Running Buffer. Transfer of proteins was performed at 12V overnight onto a nitrocellulose membrane (Protran 0.1 μm from GE Healthcare, USA) in 1× Transfer Buffer supplemented with 20% methanol. 1× Transfer Buffer is prepared from 10× Wet blot solution containing 144 g of glycine and 30 g Tris-Base in a final volume of 1 L milli-Q water.
# 3. Membranes were blocked for 30 min in 5% BSA diluted in PBS-0.1% Tween20 before being incubated overnight with a primary antibody (Mouse monoclonal antibody DO1). After a wash of 15 min in PBS-Tween20, membranes were incubated for 1 h with a corresponding secondary antibody (HRP conjugated Donkey anti Mouse). All secondary antibodies, conjugated with Horse Radish Peroxidase (HRP), were purchased from Jackson ImmunoResearch lab and used at 1:10000/1:15000 dilution (depending on the antibody) in 5% BSA-PBS-Tween20.
# At the end of the incubation membranes were washed twice with PBS-Tween20 for 15 min followed by a final 10 min wash with PBS. The chemiluminescence signal was detected on Hyperfilm™ ECL (Cytiva, USA) using the Amersham ECL Western Blotting Detection System (Cytiva, USA).
smiles,measurement,setting,value
COc1cccc2c1C(=O)c1c(O)c3c(c(O)c1C2=O)C[C@@](O)(C(=O)CO)C[C@@H]3O[C@H]1C[C@H](N)[C@H](O)[C@H](C)O1 [Doxorubicin],"p53alpha expression (Western Blot, FIG. 8)","0.25 μM doxorubicin for 1 hour, pulsed technology vs control, after 16 hours",significant overproduction of p53alpha compared to the control
same,"Other isoforms of p53 (d133p53alpha, d133p53beta, d160p53beta) expression (Western Blot, FIG. 7)","Doxorubicin 0.25 μM for 1 hour, pulsed technology vs control",more upregulated
same,"p53alpha expression (Western Blot, FIG. 7)","Doxorubicin 0.25 μM for 1 hour, pulsed technology vs control, seen from 3 hours, most evident 24 hours post-treatment",upregulated
same,"γH2AX expression (ionising radiation marker, Western Blot)","doxorubicin, pulsed technology arm vs control arm",no observed change; also recorded: remained unchanged
same,uptake / intra-cellular delivery of doxorubicin from the media,pulsed technology vs control,significantly improved
same,uptake / intra-cellular delivery of doxorubicin from the media,"pulsed technology vs control, listed as doxorubicin",increases the ability of the cells to uptake doxorubicin
